Measured values taken from the supplement of paper PMC10307832.

What was measured:
Assay in all cases: relative viability (nuclei count vs DMSO), 5 days (fraction); higher = more cells survive
[1] = compound: Cc1cc([C@@H](C)Nc2ccccc2C(=O)O)c2nc(N3CCOCC3)cc(=O)n2c1 [AZD6482] + O=C(CCCCCCC(=O)Nc1ccccc1)NO [Vorinostat] (partner 1 µM)
In short: (§1)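 Lung cancer cell lines were seeded in 1536-well plates and dosed by pin tool the next day, with either a single drug or a fixed anchor-drug dose combined with five library-drug doses (not always all listed) spaced in √10 steps. Five days later, one step fixed the cells and stained their nuclei (final 0.05% Triton X-100, 1% formaldehyde, 1 ug/ml Hoechst), and nuclei were counted on 4× images. Relative viability is the nuclei count in treated wells divided by the count in vehicle wells, and each value is the median of duplicate plates.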

[2] = compound: Cc1cc([C@@H](C)Nc2ccccc2C(=O)O)c2nc(N3CCOCC3)cc(=O)n2c1 [AZD6482] + CC(C)C[C@H](NC(=O)[C@H](Cc1ccccc1)NC(=O)c1cnccn1)B(O)O [Bortezomib] (partner 0.002 µM)
In short: as §1

[3] = compound: COc1cc2nc(N3CCCN(C)CC3)nc(NC3CCN(Cc4ccccc4)CC3)c2cc1OC + CC(=O)c1c(C)c2cnc(Nc3ccc(N4CCNCC4)cn3)nc2n(C2CCCC2)c1=O [Palbociclib] (partner 0.5 µM)
In short: as §1

[4] = compound: COc1cc2nc(N3CCCN(C)CC3)nc(NC3CCN(Cc4ccccc4)CC3)c2cc1OC + C[C@@H](Oc1cc(-c2cnn(C3CCNCC3)c2)cnc1N)c1c(Cl)ccc(F)c1Cl [Crizotinib] (partner 1 µM)
In short: as §1

Cell Line	relative viability ([1]; first compound 0.08 µM)	relative viability ([1]; first compound 0.253 µM)	relative viability ([1]; first compound 0.8 µM)	relative viability ([1]; first compound 2.53 µM)	relative viability ([1]; first compound 8 µM)	relative viability ([2]; first compound 0.08 µM)	relative viability ([2]; first compound 0.253 µM)	relative viability ([2]; first compound 0.8 µM)	relative viability ([2]; first compound 2.53 µM)	relative viability ([2]; first compound 8 µM)	relative viability ([3]; first compound 0.2 µM)	relative viability ([3]; first compound 0.6325 µM)	relative viability ([3]; first compound 2 µM)	relative viability ([3]; first compound 6.325 µM)	relative viability ([4]; first compound 0.2 µM)	relative viability ([4]; first compound 0.6325 µM)	relative viability ([4]; first compound 2 µM)	relative viability ([4]; first compound 6.325 µM)
HCC-366	0.269	0.26	0.457	0.269	0.203	0.944	0.969	1.06	0.84	0.742	0.373	0.404	0.396	0.409	0.566	0.515	0.644	0.567
HCC-827	0.801	0.795	0.912	0.649	0.686	0.991	1.1	1.09	0.872	0.836	0.478	0.448	0.437	0.446	0.886	0.944	0.917	0.918
HOP-62	0.613	0.583	0.615	0.408	0.473	0.795	1.12	0.752	0.939	1.18	0.436	0.386	0.506	0.491	0.936	0.822	0.764	0.943
IA-LM	0.858	0.906	1.03	–	0.854	1.11	0.876	0.953	0.416	0.496	–	–	–	–	–	0.802	0.926	0.42
LC-2-ad	0.703	0.702	0.854	0.605	0.625	1.07	0.962	1.1	0.754	0.926	0.509	0.533	0.444	0.52	0.398	0.484	0.475	0.43
LCLC-97TM1	0.616	0.703	0.565	–	0.583	0.499	0.38	0.435	–	0.351	0.219	0.231	0.254	0.238	0.252	–	0.599	0.313
LCLC-103H	0.661	0.748	0.784	0.565	0.51	0.969	1.08	0.921	0.742	0.729	0.479	0.47	0.452	0.444	1	0.973	1.14	1.06
LK-2	0.374	0.276	0.298	0.384	0.258	–	–	–	–	–	0.658	0.884	0.841	0.598	0.233	0.237	0.235	0.284
LOU-NH91	0.852	0.92	0.834	0.602	0.712	0.453	0.473	0.519	0.475	0.6	0.464	0.424	0.588	0.552	0.701	0.742	0.668	0.778
LU99A	0.473	0.403	0.49	0.414	0.409	1.07	1.16	1.11	0.875	0.823	0.379	0.38	0.371	0.412	0.563	0.576	0.553	0.56
NCI-H358	0.494	0.648	0.672	0.347	0.56	–	–	–	–	–	0.147	0.118	0.141	0.139	0.495	0.642	0.903	0.639
NCI-H522	0.818	0.896	0.805	0.829	0.759	–	–	–	–	–	0.716	1.18	0.859	0.915	–	–	–	–
NCI-H596	0.464	0.555	0.732	0.691	0.556	0.988	0.95	0.946	1.01	0.985	–	–	–	–	0.998	1.09	0.988	0.933
NCI-H1299	–	–	–	–	–	0.916	1.03	1.11	0.957	1.1	–	–	–	–	0.945	0.976	0.94	0.909
NCI-H1395	0.584	0.402	0.559	0.385	0.47	–	–	–	–	–	0.642	0.605	0.618	0.565	–	–	–	–
NCI-H1563	–	–	–	–	–	0.75	0.828	0.818	0.673	0.68	–	–	–	–	0.829	0.853	0.809	0.794
NCI-H1648	0.545	0.422	0.552	–	0.402	–	–	–	–	–	–	0.293	–	0.272	–	–	–	–
NCI-H1703	–	–	–	–	–	0.377	0.301	0.331	0.191	0.238	–	–	–	–	1	0.45	0.868	0.526
NCI-H1792	–	–	–	–	–	0.856	0.859	0.991	0.677	0.483	0.637	0.654	0.609	0.685	0.994	1.04	0.975	1.08
NCI-H1793	0.582	0.481	0.676	0.38	0.404	–	–	–	–	–	0.32	0.312	0.316	0.292	–	–	–	–
NCI-H1944	0.544	0.498	0.609	0.43	0.469	–	–	–	–	–	0.327	0.349	0.326	0.321	1.12	1.07	–	1.17
NCI-H2170	0.742	0.695	0.767	0.677	0.578	–	–	–	–	–	0.383	0.406	0.37	0.352	1.19	1.17	1.23	1.24
NCI-H2342	0.733	0.683	0.71	0.518	0.48	–	–	–	–	–	0.521	0.58	0.549	0.527	–	–	–	–
SK-MES-1	0.842	1.05	1.02	0.594	0.684	–	–	–	–	–	0.319	0.304	0.295	0.106	0.97	0.962	1.04	1.06
SW 900	0.38	0.357	0.528	0.328	0.402	–	–	–	–	–	0.538	0.442	0.566	0.46	–	–	–	–
